Test results: US9765105B2, “Macrolide compound” (Pulike Biological Engineering, Inc., priority 2013, dated 2017)

Assays:
Experiment in all cases: in vitro susceptibility, MIC by mini broth dilution
Type in all cases: cell-based
[1] = system: Staphylococcus aureus CVCC26003; details: strain CVCC26003
How it was run: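 S. aureus CVCC26003 was revived and subcultured twice, 20 h each at 35° C, on solid medium, then diluted 1:200 in CAMHB liquid medium. Compounds received an 11-step two-fold DMSO dilution in parallel duplicate rows. MIC was read by mini broth dilution per NCCLS guidance.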

[2] = system: Actinobacillus pleuropneumoniae CVCC262; details: strain CVCC262
How it was run: (§1)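 Veterinary bacterial strains were grown twice on solid medium at 35 °C for 20 h. Inocula were diluted 1:200 in broth and tested against 11 two-fold compound dilutions (DMSO), in paired rows, by mini broth dilution per NCCLS guidance. MIC was the readout.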

Haemophilus parasuis = system: Haemophilus parasuis
How it was run: as §1

[3] = system: Pasteurella multocida CVCC399; details: strain CVCC399
How it was run: as §1

[4] = system: Streptococcus equines CVCC556; details: strain CVCC556
How it was run: as §1

Compound	MIC values, Staphylococcus aureus CVCC26003 [1]	MIC values, Actinobacillus pleuropneumoniae CVCC262 [2]	MIC values, Haemophilus parasuis (Haemophilus parasuis)	MIC values, Pasteurella multocida CVCC399 [3]	MIC values, Streptococcus equines CVCC556 [4]
C#CCNC[C@]1(O)[C@H](C)O[C@@H](O[C@H]2[C@H](C)[C@@H](O[C@@H]3O[C@H](C)C[C@H](N(C)C)[C@H]3O)[C@](C)(O)C[C@@H](C)NC[C@H](C)[C@@H](O)[C@](C)(O)[C@@H](CC)OC(=O)[C@@H]2C)C[C@@]1(C)OC [syzx-40, (2R,3S,4R,5S,8R,10R,11R,12S,13S,14R)-13-[(2,6-dideoxy-3-C-methyl-3-O-methyl-4-C-[[propargyl-amino]-methyl]-α-L-ribopyranosyl)oxy]-2-ethyl-3,4,10-trihydroxy-3,5,8,10,12,14-hexamethyl-11-[[3,4,6-trideoxy-3-(dimethylamino)-β-D-xylo-hexopyranosy]oxy]-1-oxa-7-azacyclopentadecan-15-one]	0.5 ug/mi	16 ug/mi	0.5 ug/mi	1 ug/mi	0.5 ug/mi
CCCN1C[C@H](C)[C@@H](O)[C@](C)(O)[C@@H](CC)OC(=O)[C@H](C)[C@@H](O[C@H]2C[C@@](C)(OC)[C@](O)(CN(C)CCO)[C@H](C)O2)[C@H](C)[C@@H](O[C@@H]2O[C@H](C)C[C@H](N(C)C)[C@H]2O)[C@](C)(O)C[C@H]1C [syzx-239]	4 ug/mi	4 ug/mi	2 ug/mi	8 ug/mi	0.25 ug/mi
CC[C@H]1OC(=O)[C@H](C)[C@@H](O[C@H]2C[C@@](C)(OC)[C@](O)(CNCCN3CCCC3)[C@H](C)O2)[C@H](C)[C@@H](O[C@@H]2O[C@H](C)C[C@H](N(C)C)[C@H]2O)[C@](C)(O)C[C@@H](C)NC[C@H](C)[C@@H](O)[C@]1(C)O [syzx-90]	2 ug/mi	0.5 ug/mi	2 ug/mi	2 ug/mi	0.5 ug/mi
CCCN1C[C@H](C)[C@@H](O)[C@](C)(O)[C@@H](CC)OC(=O)[C@H](C)[C@@H](O[C@H]2C[C@@](C)(OC)[C@](O)(CNc3nc(OC)cc(OC)n3)[C@H](C)O2)[C@H](C)[C@@H](O[C@@H]2O[C@H](C)C[C@H](N(C)C)[C@H]2O)[C@](C)(O)C[C@H]1C [syzx-222]	4 ug/mi	2 ug/mi	2 ug/mi	8 ug/mi	0.25 ug/mi
CCCN1C[C@H](C)[C@@H](O)[C@](C)(O)[C@@H](CC)OC(=O)[C@H](C)[C@@H](O[C@H]2C[C@@](C)(OC)[C@](O)(CNc3cc(Cl)nc(Cl)n3)[C@H](C)O2)[C@H](C)[C@@H](O[C@@H]2O[C@H](C)C[C@H](N(C)C)[C@H]2O)[C@](C)(O)C[C@H]1C [syzx-237]	2 ug/mi	4 ug/mi	4 ug/mi	8 ug/mi	0.25 ug/mi
CCCN1C[C@H](C)[C@@H](O)[C@](C)(O)[C@@H](CC)OC(=O)[C@H](C)[C@@H](O[C@H]2C[C@@](C)(OC)[C@](O)(CNC3CC3)[C@H](C)O2)[C@H](C)[C@@H](O[C@@H]2O[C@H](C)C[C@H](N(C)C)[C@H]2O)[C@](C)(O)C[C@H]1C [syzx-217]	0.25 ug/mi	0.25 ug/mi	0.25 ug/mi	0.5 ug/mi	0.25 ug/mi
CC[C@H]1OC(=O)[C@H](C)[C@@H](O[C@H]2C[C@@](C)(OC)[C@](O)(CNCCCO)[C@H](C)O2)[C@H](C)[C@@H](O[C@@H]2O[C@H](C)C[C@H](N(C)C)[C@H]2O)[C@](C)(O)C[C@@H](C)NC[C@H](C)[C@@H](O)[C@]1(C)O [syzx-46, (2R,3S,4R,5S,8R,10R,11R,12S,13S,14R)-13-[(2,6-dideoxy-3-C-methyl-3-O-methyl-4-C-[(3-hydroxy-propylamino)-methyl]-α-L-ribopyranosyl)oxy]-2-ethyl-3,4,10-trihydroxy-3,5,8,10,12,14-hexamethyl-11-[[3,4,6-trideoxy-3-(dimethylamino)-β-D-xylo-hexopyranosy]oxy]-1-oxa-7-azacyclopentadecan-15-one]	1 ug/mi	32 ug/mi	≦0.25 ug/mi	4 ug/mi	2 ug/mi
CCCCN(C)C[C@]1(O)[C@H](C)O[C@@H](O[C@H]2[C@H](C)[C@@H](O[C@@H]3O[C@H](C)C[C@H](N(C)C)[C@H]3O)[C@](C)(O)C[C@@H](C)NC[C@H](C)[C@@H](O)[C@](C)(O)[C@@H](CC)OC(=O)[C@@H]2C)C[C@@]1(C)OC [syzx-98, (2R,3S,4R,5S,8R,10R,11R,12S,13S,14R)-13-[(2,6-dideoxy-3-C-methyl-3-O-methyl-4-C-[(N-methyl-butyl-amino)-methyl]-α-L-ribopyranosyl)oxy]-2-ethyl-3,4,10-trihydroxy-3,5,8,10,12,14-hexamethyl-11-[[3,4,6-trideoxy-3-(dimethylamino)-β-D-xylo-hexopyranosy]oxy]-1-oxa-7-azacyclopentadecan-15-one]	1 ug/mi	0.5 ug/mi	0.5 ug/mi	2 ug/mi	0.25 ug/mi
CCCN1C[C@H](C)[C@@H](O)[C@](C)(O)[C@@H](CC)OC(=O)[C@H](C)[C@@H](O[C@H]2C[C@@](C)(OC)[C@](O)(CNCC3CC3)[C@H](C)O2)[C@H](C)[C@@H](O[C@@H]2O[C@H](C)C[C@H](N(C)C)[C@H]2O)[C@](C)(O)C[C@H]1C [syzx-117]	0.25 ug/mi	0.25 ug/mi	0.25 ug/mi	0.5 ug/mi	0.25 ug/mi
CCCN1C[C@H](C)[C@@H](O)[C@](C)(O)[C@@H](CC)OC(=O)[C@H](C)[C@@H](O[C@H]2C[C@@](C)(OC)[C@](O)(CNc3ccc([N+](=O)[O-])cc3[N+](=O)[O-])[C@H](C)O2)[C@H](C)[C@@H](O[C@@H]2O[C@H](C)C[C@H](N(C)C)[C@H]2O)[C@](C)(O)C[C@H]1C [syzx-228]	2 ug/mi	1 ug/mi	1 ug/mi	2 ug/mi	0.25 ug/mi

More lines, now with the values ahead:

MIC values, Staphylococcus aureus CVCC26003 [1]	MIC values, Actinobacillus pleuropneumoniae CVCC262 [2]	MIC values, Haemophilus parasuis (Haemophilus parasuis)	MIC values, Pasteurella multocida CVCC399 [3]	MIC values, Streptococcus equines CVCC556 [4]	Compound
0.25 ug/mi	0.5 ug/mi	0.25 ug/mi	1 ug/mi	0.25 ug/mi	CCCN1CC(C)C(O)C(C)(O)C(CC)OC(=O)C(C)C(OC2CC(C)(OC)C(O)(CNNc3ccc(F)cc3)C(C)O2)C(C)C(OC2OC(C)CC(N(C)C)C2O)C(C)(O)CC1C (stereo not drawn) [syzx-181]
0.25 ug/mi	0.25 ug/mi	0.25 ug/mi	1 ug/mi	0.25 ug/mi	CCCN1C[C@H](C)[C@@H](O)[C@](C)(O)[C@@H](CC)OC(=O)[C@H](C)[C@@H](O[C@H]2C[C@@](C)(OC)[C@](O)(CNCc3ccc(C(F)(F)F)cc3)[C@H](C)O2)[C@H](C)[C@@H](O[C@@H]2O[C@H](C)C[C@H](N(C)C)[C@H]2O)[C@](C)(O)C[C@H]1C [syzx-116]
0.25 ug/mi	0.25 ug/mi	0.25 ug/mi	0.5 ug/mi	0.25 ug/mi	CCCN1C[C@H](C)[C@@H](O)[C@](C)(O)[C@@H](CC)OC(=O)[C@H](C)[C@@H](O[C@H]2C[C@@](C)(OC)[C@](O)(CNCC)[C@H](C)O2)[C@H](C)[C@@H](O[C@@H]2O[C@H](C)C[C@H](N(C)C)[C@H]2O)[C@](C)(O)C[C@H]1C [syzx-110]
2 ug/mi	4 ug/mi	4 ug/mi	8 ug/mi	0.5 ug/mi	CCCN1C[C@H](C)[C@@H](O)[C@](C)(O)[C@@H](CC)OC(=O)[C@H](C)[C@@H](O[C@H]2C[C@@](C)(OC)[C@](O)(CNc3ccc(Cl)cn3)[C@H](C)O2)[C@H](C)[C@@H](O[C@@H]2O[C@H](C)C[C@H](N(C)C)[C@H]2O)[C@](C)(O)C[C@H]1C [syzx-211]
1 ug/mi	1 ug/mi	0.5 ug/mi	2 ug/mi	0.5 ug/mi	CCCN1C[C@H](C)[C@@H](O)[C@](C)(O)[C@@H](CC)OC(=O)[C@H](C)[C@@H](O[C@H]2C[C@@](C)(OC)[C@](O)(CNCc3cccc(OC)c3)[C@H](C)O2)[C@H](C)[C@@H](O[C@@H]2O[C@H](C)C[C@H](N(C)C)[C@H]2O)[C@](C)(O)C[C@H]1C [syzx-135]
